Experimental data taken from the supplement of paper PMC10307832.

What was measured:
Experiment in all cases: relative viability (nuclei count vs DMSO), 5 days (fraction); higher = more cells survive
Etoposide + Pictilisib = compound: COc1cc([C@@H]2c3cc4c(cc3[C@@H](O[C@@H]3O[C@@H]5CO[C@@H](C)O[C@H]5[C@H](O)[C@H]3O)[C@H]3COC(=O)[C@H]23)OCO4)cc(OC)c1O [Etoposide] + CS(=O)(=O)N1CCN(Cc2cc3nc(-c4cccc5[nH]ncc45)nc(N4CCOCC4)c3s2)CC1 [Pictilisib] (partner 1 µM)
Summary of the method: (§1)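 Lung cancer cell lines in 1536-well plates got either a single drug or a fixed anchor-drug dose together with five library-drug doses (not always all listed) in √10 steps, by pin tool, on the day after seeding. Nuclei were counted after 5 days, and relative viability is the treated-to-vehicle ratio of nuclei counts. Values are medians of duplicate plates.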

Etoposide + AZD7762 = compound: COc1cc([C@@H]2c3cc4c(cc3[C@@H](O[C@@H]3O[C@@H]5CO[C@@H](C)O[C@H]5[C@H](O)[C@H]3O)[C@H]3COC(=O)[C@H]23)OCO4)cc(OC)c1O [Etoposide] + NC(=O)Nc1cc(-c2cccc(F)c2)sc1C(=O)N[C@H]1CCCNC1 [AZD7762] (partner 0.2 µM)
Summary of the method: as §1

Bleomycin + Olaparib = compound: CC1=C(N=C(N=C1N)[C@H](CC(=O)N)NC[C@@H](C(=O)N)N)C(=O)N[C@@H]([C@H](C2=CN=CN2)OC3C(C(C(C(O3)CO)O)O)OC4C(C(C(C(O4)CO)O)OC(=O)N)O)C(=O)N[C@H](C)[C@H]([C@H](C)C(=O)N[C@@H]([C@@H](C)O)C(=O)NCCC5=NC(=CS5)C6=NC(=CS6)C(=O)NCCC[S+](C)C)O [Bleomycin] + O=C(c1cc(Cc2n[nH]c(=O)c3ccccc23)ccc1F)N1CCN(C(=O)C2CC2)CC1 [Olaparib] (partner 8 µM); conditions: main component drawn
Summary of the method: as §1

Bleomycin + Luminespib = compound: CC1=C(N=C(N=C1N)[C@H](CC(=O)N)NC[C@@H](C(=O)N)N)C(=O)N[C@@H]([C@H](C2=CN=CN2)OC3C(C(C(C(O3)CO)O)O)OC4C(C(C(C(O4)CO)O)OC(=O)N)O)C(=O)N[C@H](C)[C@H]([C@H](C)C(=O)N[C@@H]([C@@H](C)O)C(=O)NCCC5=NC(=CS5)C6=NC(=CS6)C(=O)NCCC[S+](C)C)O [Bleomycin] + CCNC(=O)c1noc(-c2cc(C(C)C)c(O)cc2O)c1-c1ccc(CN2CCOCC2)cc1 [Luminespib] (partner 0.01 µM); conditions: main component drawn
Summary of the method: as §1

Cell Line	relative viability (Etoposide + Pictilisib; first compound 0.01 µM)	relative viability (Etoposide + Pictilisib; first compound 0.03162 µM)	relative viability (Etoposide + Pictilisib; first compound 0.1 µM)	relative viability (Etoposide + Pictilisib; first compound 0.3162 µM)	relative viability (Etoposide + Pictilisib; first compound 1 µM)	relative viability (Etoposide + AZD7762; first compound 0.01 µM)	relative viability (Etoposide + AZD7762; first compound 0.03162 µM)	relative viability (Etoposide + AZD7762; first compound 0.1 µM)	relative viability (Etoposide + AZD7762; first compound 0.3162 µM)	relative viability (Etoposide + AZD7762; first compound 1 µM)	relative viability (Bleomycin + Olaparib; first compound 0.01 µM)	relative viability (Bleomycin + Olaparib; first compound 0.03162 µM)	relative viability (Bleomycin + Olaparib; first compound 0.1 µM)	relative viability (Bleomycin + Olaparib; first compound 0.3162 µM)	relative viability (Bleomycin + Olaparib; first compound 1 µM)	relative viability (Bleomycin + Luminespib; first compound 0.01 µM)	relative viability (Bleomycin + Luminespib; first compound 0.03162 µM)	relative viability (Bleomycin + Luminespib; first compound 0.1 µM)	relative viability (Bleomycin + Luminespib; first compound 0.3162 µM)	relative viability (Bleomycin + Luminespib; first compound 1 µM)
NCI-H1975	0.304	0.328	0.225	0.276	0.168	0.702	0.804	0.508	0.658	0.443	0.565	0.387	0.394	0.169	0.181	0.29	0.168	0.177	0.164	0.178
CAL-12T	0.508	0.438	0.323	0.391	0.258	0.567	0.792	0.613	0.477	0.409	0.416	0.375	0.217	0.177	0.135	0.493	0.555	0.233	0.173	0.143
NCI-H1623	–	–	–	–	–	–	–	–	–	–	–	–	–	–	–	0.396	0.474	0.525	0.343	0.31
HCC-44	0.529	0.601	0.531	0.589	0.275	1.02	1.05	1.15	1.01	0.95	0.84	0.739	0.657	0.415	0.401	0.39	0.277	0.261	0.187	0.239
EKVX	0.447	0.429	0.208	0.309	0.241	0.759	0.818	0.268	0.344	0.272	0.719	0.563	0.501	0.244	0.231	0.79	0.824	0.804	0.357	0.264
NCI-H1651	0.49	0.681	0.436	0.178	0.0908	0.476	0.508	0.287	0.274	0.186	0.177	0.153	0.172	0.116	0.122	0.538	0.574	0.402	0.257	0.205
NCI-H1944	0.362	0.39	0.27	0.294	0.222	0.577	0.639	0.276	0.377	0.235	0.259	0.252	0.264	0.18	0.151	0.363	0.318	0.269	0.176	0.148
NCI-H1703	0.234	0.313	0.269	0.214	0.171	0.149	0.126	–	0.121	0.114	0.55	0.508	0.289	0.309	0.166	–	–	–	–	–
Calu-6	0.841	0.908	0.764	0.457	0.25	–	–	–	–	–	0.375	0.343	0.254	0.127	0.137	–	–	–	–	–
EBC-1	0.362	0.384	0.218	0.287	0.156	–	–	–	–	–	0.604	0.671	0.645	0.419	0.331	–	–	–	–	–
A-427	0.726	0.817	0.507	0.469	0.169	0.713	0.741	0.569	0.473	0.286	0.58	0.566	0.455	0.274	0.24	0.747	0.775	0.753	0.256	0.158
NCI-H2405	0.455	0.508	0.268	0.399	0.315	0.754	0.765	0.728	0.638	0.317	0.668	0.757	0.669	0.395	0.277	0.651	0.697	0.589	0.347	0.358
NCI-H1355	0.492	0.552	0.276	0.284	0.144	0.746	0.862	0.501	0.586	0.305	0.669	0.71	0.676	0.341	0.228	0.672	0.606	0.698	0.304	0.289
NCI-H358	0.382	0.336	0.259	0.23	0.16	0.512	0.527	0.332	0.288	0.266	0.475	0.713	0.657	0.294	0.227	0.307	0.251	0.27	0.23	0.283
RERF-LC-KJ	0.533	0.586	0.459	0.529	0.365	0.935	1.1	0.583	0.861	0.967	0.425	0.385	0.325	0.162	0.16	0.555	0.479	0.461	0.307	0.287
NCI-H23	0.433	0.487	0.275	0.334	0.185	0.246	0.307	0.187	0.195	0.172	0.205	0.153	0.171	0.107	0.107	0.228	0.2	0.211	0.176	0.216
